Test results: article PMC11266321 (EJNMMI Radiopharmacy and Chemistry, 2024)

What was measured:
[1] = tested on: β-Adrenergic (non-selective); assay: Radioligand binding inhibition, β-Adrenergic; details: 10 µM; radioligand [^3H]DHA; mean of duplicate
Description: (§1) Interaction of MMP with 28 binding sites was examined, including major classes of neurotransmitter receptor, uptake system, and ion channels (Sekisui Medical, Naka, Japan). MMP was tested in all assays at 10 µM. […] 10.2.3 (GraphPad Software, San Diego, CA). Each determination was made in duplicate.
(§2) Test substance concentration : 10 µM, positive substance concentration : 10 µM
(§3) Data are expressed as the mean values of duplicate samples.
(§4) The % inhibition was calculated from “100 – binding ratio”.
(§5) Binding ratio: [(B - N) / (B0 - N)] × 100 (%)
(§6) B: Bound radioactivity in the presence of test substance and positive substance (individual value)
(§7) B0: Total bound radioactivity in the absence of test substance and positive substance (mean value)
(§8) N: Non-specific bound radioactivity (mean value)

[2] = target: T1, Adenosine A1 (Homo sapiens, UniProt P30542); assay: Radioligand binding inhibition, Adenosine A1; details: 10 µM; radioligand [^3H]DPCPX; mean of duplicate
T1 construct: Sekisui Medical (contract laboratory)
Description: (§9) Interaction of MMP with 28 binding sites was examined, including major classes of neurotransmitter receptor, uptake system, and ion channels (Sekisui Medical, Naka, Japan). MMP was tested in all assays at 10 µM. […] Each determination was made in duplicate.
as §2, §3, §4, §5, §6, §7, §8

[3] = tested on: GABA A (BZ central); assay: Radioligand binding inhibition, GABA A BZ central; details: 10 µM; radioligand [^3H]Flunitrazepam; mean of duplicate
Description: as §1, §2, §3, §4, §5, §6, §7, §8

[4] = tested on: Sprague–Dawley rats; assay: Acute toxicity of MMP, single intraperitoneal injection; type: in vivo, rat
Excerpt: (§10) The MMP was custom synthesized by the Nard Institute (Kobe, Japan) using methods described previously (Toyohara et al. [2020a]). All other chemical reagents were obtained from commercial sources. Male ddY mice were obtained from Japan SLC (Hamamatsu, Japan). Sprague–Dawley rats [Crl: CD(SD)] were obtained from […] (Yokohama, Japan). Animal studies were approved by the Animal Care and Use Committee of the Tokyo Metropolitan Institute for Geriatrics and Gerontology (Approval Nos. 22,015 and 23,007) and Nihon Bioresearch (Hashima, Japan; Approval Nos. 430,085 and 430,086). Acute toxicity studies were performed under the “Revisions of the Guidelines for Single and Repeated Dose Toxicity Studies” (PMDA, 1993). Ames test was performed under the “Guidance on Genotoxicity Testing and Data Interpretation for Pharmaceuticals Intended for Human Use” (PMDA, 2012).
In Japan, the structure of nonclinical toxicology studies for PET drugs in clinical research is the responsibility of the ethics committee of each institution or the subcommittee of specialities of PET drugs. According to the method used previously for approval of PET drugs for clinical use in our institute (Toyohara et al. [2013], [2016], [2020b]; Sakata et al. [2017]), we performed single-arm acute toxicology studies of the active pharmaceutical ingredient (MMP) and final dose formulation ([^11C]MMP injection). Mutagenicity tests will also be conducted, as there are concerns about stochastic effects on genotoxicity.
Acute toxicity studies were performed at the Hashima Research Center, Nihon Bioresearch, under non-Good Laboratory Practice (GLP) control. Acute toxicity of MMP was tested in Sprague–Dawley rats. MMP at a dose of 3.55 mg/kg body weight (0.71 mg/mL in 10 v/v% dimethyl sulfoxide containing water for injection) was injected intraperitoneally into 5-week-old rats weighing 143–172 g (male, n = 5) and 129–135 g (female, n = 5). The dose of 3.55 mg/kg body weight is the 10,000-fold equivalent of the postulated maximum administration dose (1.85 nmol/0.355 µg/kg body weight) of 740 MBq [^11C]MMP, with the lowest molar activity (Am) of 10 MBq/nmol for humans weighing 40 kg. Rats were observed frequently until 1 h and then at 2, 4, and 6 h after the injection on day 1, and thereafter once daily for 14 days for clinical signs of toxicity. Rats were weighed on days 1, 2, 4, 7, 10, and 14. At the end of the 14-day observation period, the rats were euthanized by exsanguination under isoflurane anaesthesia, and a macroscopic analysis of the autopsy samples was performed.

[5] = target: T2, Dopamine D2 (Homo sapiens, UniProt P14416); assay: Radioligand binding inhibition, Dopamine D2; details: 10 µM; radioligand [^3H]Spiperone; mean of duplicate
T2 construct: Sekisui Medical (contract laboratory)
Description: as §1, §2, §3, §4, §5, §6, §7, §8

[6] = tested on: Glycine (strychnine site); type: binding; details: 10 µM; radioligand [^3H]Strychine; mean of duplicate
[7] = target: T3, Serotonin 5HT1A (Homo sapiens, UniProt P08908); assay: Radioligand binding inhibition, Serotonin 5HT1A; details: 10 µM; radioligand [^3H]8-OH DPAT; mean of duplicate
T3 construct: Sekisui Medical (contract laboratory)
Description: as §1, §2, §3, §4, §5, §6, §7, §8

[8] = tested on: Escherichia coli (WP2uvrA); assay: Ames test (reverse bacterial mutation test), E. coli; type: cell-based; details: with and without S9 mixture, 78.1–5000 µg/plate
Excerpt: as §10
Mutagenicity tests were performed at the Hashima Research Center, Nihon Bioresearch, under non-GLP control. MMP was tested for mutagenicity by the Ames test with four histidine-requiring strains of Salmonella typhimurium (TA98, TA100, TA1535, and TA1537) and one strain of Escherichia coli (WP2uvrA), with and without the S9 mixture, at a dose range of 78.1–5000 µg/plate according to the standard method.

[9] = tested on: α1-Adrenergic (non-selective); assay: Radioligand binding inhibition, α1-Adrenergic; details: 10 µM; radioligand [^3H]Prazosin; mean of duplicate
[10] = tested on: Glutamate (NMDA phencyclidine site); assay: Radioligand binding inhibition, Glutamate NMDA phencyclidine site; details: 10 µM; radioligand [^3H]MK-801; mean of duplicate
Description: as §1, §2, §3, §4, §5, §6, §7, §8

[11] = tested on: Glutamate (AMPA); assay: Radioligand binding inhibition, Glutamate AMPA; details: 10 µM; radioligand [^3H]AMPA; mean of duplicate
Description: as §1, §2, §3, §4, §5, §6, §7, §8

[12] = tested on: Glutamate (NMDA agonist site); assay: Radioligand binding inhibition, Glutamate NMDA agonist site; details: 10 µM; radioligand [^3H]CGP-39653; mean of duplicate
Description: as §1, §2, §3, §4, §5, §6, §7, §8

[13] = target: T4, Serotonin 5HT2A (Homo sapiens, UniProt P28223); assay: Radioligand binding inhibition, Serotonin 5HT2A; details: 10 µM; radioligand [^3H]Ketanserin; mean of duplicate
T4 construct: Sekisui Medical (contract laboratory that ran the panel)
Description: as §1, §2, §3, §4, §5, §6, §7, §8

[14] = target: T5, GABA B (Homo sapiens, UniProt Q9UBS5); assay: Radioligand binding inhibition, GABA B; details: 10 µM; radioligand [^3H]GABA; mean of duplicate
T5 construct: Sekisui Medical (contract laboratory)
Description: as §9, §2, §3, §4, §5, §6, §7, §8

[15] = tested on: Glutamate (non-selective); assay: Radioligand binding inhibition, Glutamate non-selective; details: 10 µM; radioligand [^3H]Glutamic acid; mean of duplicate
Description: as §1, §2, §3, §4, §5, §6, §7, §8

T1 sequence (P30542 whole entry): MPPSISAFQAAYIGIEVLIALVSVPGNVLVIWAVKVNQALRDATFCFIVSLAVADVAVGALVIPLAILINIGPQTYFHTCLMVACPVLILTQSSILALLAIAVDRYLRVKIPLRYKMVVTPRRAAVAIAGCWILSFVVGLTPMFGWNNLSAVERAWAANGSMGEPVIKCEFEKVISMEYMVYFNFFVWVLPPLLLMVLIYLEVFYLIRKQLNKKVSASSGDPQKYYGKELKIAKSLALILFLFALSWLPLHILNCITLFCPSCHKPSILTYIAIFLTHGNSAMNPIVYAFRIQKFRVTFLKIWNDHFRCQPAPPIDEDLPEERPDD
T2 sequence (P14416 whole entry): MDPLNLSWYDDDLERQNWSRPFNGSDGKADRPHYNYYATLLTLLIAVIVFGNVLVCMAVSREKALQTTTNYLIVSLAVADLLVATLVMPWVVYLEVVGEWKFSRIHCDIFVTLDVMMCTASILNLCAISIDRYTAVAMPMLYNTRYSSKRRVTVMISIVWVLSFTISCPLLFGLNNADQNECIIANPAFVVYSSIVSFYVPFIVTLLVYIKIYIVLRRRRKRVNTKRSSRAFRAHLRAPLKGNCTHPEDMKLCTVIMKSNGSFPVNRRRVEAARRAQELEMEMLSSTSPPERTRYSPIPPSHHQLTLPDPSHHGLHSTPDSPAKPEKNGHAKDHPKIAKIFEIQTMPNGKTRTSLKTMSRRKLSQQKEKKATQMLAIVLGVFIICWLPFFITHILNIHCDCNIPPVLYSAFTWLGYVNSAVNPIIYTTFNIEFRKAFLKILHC
T3 sequence (P08908 whole entry): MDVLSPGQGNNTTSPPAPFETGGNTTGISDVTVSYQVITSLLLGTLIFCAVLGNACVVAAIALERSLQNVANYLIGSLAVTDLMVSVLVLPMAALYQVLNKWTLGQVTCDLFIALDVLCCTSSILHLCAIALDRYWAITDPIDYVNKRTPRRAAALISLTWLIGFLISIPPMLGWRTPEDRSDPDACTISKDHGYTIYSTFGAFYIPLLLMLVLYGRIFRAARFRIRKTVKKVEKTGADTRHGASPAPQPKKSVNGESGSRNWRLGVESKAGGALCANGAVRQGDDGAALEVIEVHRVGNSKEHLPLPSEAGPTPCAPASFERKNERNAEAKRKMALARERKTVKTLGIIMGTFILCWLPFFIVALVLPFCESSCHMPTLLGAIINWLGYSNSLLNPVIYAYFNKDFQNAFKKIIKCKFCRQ
T5 sequence (Q9UBS5 15-961 limits assumed): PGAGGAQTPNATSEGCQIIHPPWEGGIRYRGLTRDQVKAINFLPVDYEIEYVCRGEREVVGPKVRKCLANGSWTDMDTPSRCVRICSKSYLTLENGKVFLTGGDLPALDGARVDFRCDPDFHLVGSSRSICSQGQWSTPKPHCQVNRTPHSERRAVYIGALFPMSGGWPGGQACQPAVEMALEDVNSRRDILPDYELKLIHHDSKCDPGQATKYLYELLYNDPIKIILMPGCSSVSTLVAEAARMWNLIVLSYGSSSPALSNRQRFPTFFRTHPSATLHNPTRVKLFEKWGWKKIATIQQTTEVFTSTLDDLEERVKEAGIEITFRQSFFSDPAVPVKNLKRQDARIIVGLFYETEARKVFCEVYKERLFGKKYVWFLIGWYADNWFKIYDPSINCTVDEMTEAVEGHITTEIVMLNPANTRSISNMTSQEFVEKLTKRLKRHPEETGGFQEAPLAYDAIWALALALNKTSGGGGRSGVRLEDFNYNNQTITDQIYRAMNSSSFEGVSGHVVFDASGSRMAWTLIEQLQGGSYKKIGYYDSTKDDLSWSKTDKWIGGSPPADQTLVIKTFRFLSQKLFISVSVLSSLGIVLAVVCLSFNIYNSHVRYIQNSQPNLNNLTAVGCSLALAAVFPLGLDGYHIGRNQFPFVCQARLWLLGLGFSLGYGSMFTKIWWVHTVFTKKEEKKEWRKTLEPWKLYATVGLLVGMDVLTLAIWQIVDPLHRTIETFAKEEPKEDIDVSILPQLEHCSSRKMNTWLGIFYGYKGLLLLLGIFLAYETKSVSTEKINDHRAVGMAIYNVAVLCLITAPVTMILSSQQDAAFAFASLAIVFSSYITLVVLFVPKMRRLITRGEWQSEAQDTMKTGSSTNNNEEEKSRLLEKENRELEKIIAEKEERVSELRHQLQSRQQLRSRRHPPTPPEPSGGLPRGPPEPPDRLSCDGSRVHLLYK
T5 sequence (O75899 42-941 partner): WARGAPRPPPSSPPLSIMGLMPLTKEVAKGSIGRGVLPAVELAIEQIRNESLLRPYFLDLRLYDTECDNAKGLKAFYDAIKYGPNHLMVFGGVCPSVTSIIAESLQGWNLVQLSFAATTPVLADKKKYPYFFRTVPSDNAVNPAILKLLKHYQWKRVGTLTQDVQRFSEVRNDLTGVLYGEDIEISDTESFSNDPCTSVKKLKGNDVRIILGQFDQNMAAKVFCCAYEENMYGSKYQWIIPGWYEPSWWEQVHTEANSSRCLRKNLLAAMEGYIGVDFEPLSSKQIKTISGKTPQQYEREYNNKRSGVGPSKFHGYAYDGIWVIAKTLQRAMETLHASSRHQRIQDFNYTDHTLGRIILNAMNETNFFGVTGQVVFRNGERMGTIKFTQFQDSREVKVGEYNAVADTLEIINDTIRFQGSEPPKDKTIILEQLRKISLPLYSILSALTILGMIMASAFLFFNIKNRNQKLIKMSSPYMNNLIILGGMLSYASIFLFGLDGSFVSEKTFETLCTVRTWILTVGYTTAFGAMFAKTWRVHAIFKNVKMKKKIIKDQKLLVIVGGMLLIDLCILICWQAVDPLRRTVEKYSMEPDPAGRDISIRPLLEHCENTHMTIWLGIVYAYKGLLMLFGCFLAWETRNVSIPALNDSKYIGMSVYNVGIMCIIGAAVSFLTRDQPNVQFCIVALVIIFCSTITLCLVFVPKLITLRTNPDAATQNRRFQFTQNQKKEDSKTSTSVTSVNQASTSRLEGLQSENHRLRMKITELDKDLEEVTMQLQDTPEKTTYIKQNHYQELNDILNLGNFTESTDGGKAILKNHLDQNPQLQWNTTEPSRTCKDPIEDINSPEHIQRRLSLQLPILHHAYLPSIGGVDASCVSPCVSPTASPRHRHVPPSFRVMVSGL
T4 sequence (P28223 whole entry): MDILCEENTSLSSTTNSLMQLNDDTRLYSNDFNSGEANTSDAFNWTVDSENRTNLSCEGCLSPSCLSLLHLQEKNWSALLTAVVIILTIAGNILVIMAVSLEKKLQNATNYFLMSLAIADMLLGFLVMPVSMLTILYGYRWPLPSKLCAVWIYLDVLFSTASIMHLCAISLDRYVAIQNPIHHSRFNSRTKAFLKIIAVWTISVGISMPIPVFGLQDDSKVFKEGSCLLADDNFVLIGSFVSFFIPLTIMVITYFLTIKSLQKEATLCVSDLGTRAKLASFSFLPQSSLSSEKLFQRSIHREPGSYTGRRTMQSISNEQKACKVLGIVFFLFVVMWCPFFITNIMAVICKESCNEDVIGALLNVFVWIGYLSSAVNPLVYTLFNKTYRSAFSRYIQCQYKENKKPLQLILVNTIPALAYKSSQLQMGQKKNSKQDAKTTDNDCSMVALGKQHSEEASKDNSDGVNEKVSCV

Cc1ccc(CC(C)NC(C)C)cc1 (centres unmarked) [MMP, N-isopropyl-p-methylamphetamine]
Inhibition ratio (%) [1]: 32.80%
Inhibition ratio (%) [2]: 3.26%
Inhibition ratio (%) [3]: 2.17%
NOAEL as multiple of postulated maximum administration dose ([4]; 740 MBq, Am 10 MBq/nmol, human body weight 40 kg): 1,600 times
acute toxicity ([4]; rats, 3.55 mg/kg body weight (10,000 times potential maximum clinical dose)): No acute toxicity
body weight gain ([4]; rats, single i.p. 3.55 mg/kg): normal gains in body weight
post-mortem macroscopic examination ([4]; rats, single i.p. 3.55 mg/kg): no abnormalities
mortality ([4]; rats, single i.p. 3.55 mg/kg, 14-day observation): no mortality
clinical signs of toxicity ([4]; rats, single i.p. 3.55 mg/kg, 15-day period): no clinical signs of toxicity
Inhibition ratio (%) [5]: 6.04%
Inhibition ratio (%) [6]: 4.11%
Inhibition ratio (%) [7]: 15.84%
mutagenic activity [8]: no mutagenic activity
Inhibition ratio (%) [9]: 44.47%
Inhibition ratio (%) [10]: 0.00%
Inhibition ratio (%) [11]: 5.98%
Inhibition ratio (%) [12]: 4.63%
Inhibition ratio (%) [13]: 24.12%
Inhibition ratio (%) [14]: 1.59%
Inhibition ratio (%) [15]: 0.00%
